Test results: patent US20240109912A1, “TRICYCLIC PYRIMIDINES AS CYCLIN-DEPENDENT KINASE 7 (CDK7) INHIBITORS” (JANSSEN PHARMACEUTICA NV, priority 2020, published 2024)
“And” between values parts separate entries of the source, which are not always exact repeats. Equal values may be shown once. Read-outs that look alike come from different tables or passages of the source.

Tests used:
[1] = target: CDK7/cyclinH/MAT1 trimeric complex (Homo sapiens (Human), UniProt P50613); test: In vitro CDK7 assay, potency of irreversible covalent inhibitors (kinact/KI)
[2] = tested on: RNA polymerase II Serine 5 phosphorylation (CDK7) in A549 cells
[3] = tested on: RNA polymerase II Serine 5 phosphorylation in A549 cells overexpressing CDK7 mutant (C312S); test: Imaging-based cellular RNA PolII Ser5 phosphorylation assay in A549 cells overexpressing CDK7-mutant (C312S); type: cell-based, human; settings: Homo sapiens, A549, A549 cells overexpressing CDK7 mutant (C312S); read-out: CDK7_ A549 mutant hCDK7(pIC50) (converted)
Method in brief: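 A stably transduced A549 pool overexpressing CDK7 C312S, a mutant that blocks covalent binding at Cys312, while retaining endogenous wild-type CDK7 was used. Ser5 phosphorylation was measured by imaging, and IC50 values were derived.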

[4] = CDK7 (20 nM enz.) (KI, μM), 20 nM enz.
[5] = read-out: CDK7 (20 nM enz.) (kinact, s^−1), 20 nM enz.
[6] = read-out: CDK7 (20 nM enz.) (kinact/ KI, M^−1*s^−1), 20 nM enz.
[7] = read-out: CDK7 (20 nM enz.) (kobs/[I], M^−1*s^−1), 20 nM enz.

Sequence of CDK7/cyclinH/MAT1 trimeric complex (P50613 whole entry): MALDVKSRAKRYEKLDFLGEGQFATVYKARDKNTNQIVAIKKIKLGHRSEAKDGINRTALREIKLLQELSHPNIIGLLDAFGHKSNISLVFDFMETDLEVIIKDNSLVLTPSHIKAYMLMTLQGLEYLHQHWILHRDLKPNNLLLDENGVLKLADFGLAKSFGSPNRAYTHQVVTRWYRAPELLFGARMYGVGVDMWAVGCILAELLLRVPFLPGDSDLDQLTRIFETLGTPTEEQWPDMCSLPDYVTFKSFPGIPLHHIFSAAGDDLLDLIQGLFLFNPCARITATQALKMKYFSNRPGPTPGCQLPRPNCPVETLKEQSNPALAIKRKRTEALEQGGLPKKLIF
Sequence of CDK7/cyclinH/MAT1 trimeric complex (P51946 whole entry partner): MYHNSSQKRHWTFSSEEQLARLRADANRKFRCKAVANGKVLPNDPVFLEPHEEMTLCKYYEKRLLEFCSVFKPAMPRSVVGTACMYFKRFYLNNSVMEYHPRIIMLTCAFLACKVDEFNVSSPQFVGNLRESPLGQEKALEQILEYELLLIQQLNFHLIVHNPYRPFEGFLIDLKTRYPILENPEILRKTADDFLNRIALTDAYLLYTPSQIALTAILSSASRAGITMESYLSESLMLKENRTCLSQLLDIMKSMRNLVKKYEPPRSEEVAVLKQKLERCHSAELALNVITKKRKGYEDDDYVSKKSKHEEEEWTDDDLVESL
Sequence of CDK7/cyclinH/MAT1 trimeric complex (P51948 whole entry partner): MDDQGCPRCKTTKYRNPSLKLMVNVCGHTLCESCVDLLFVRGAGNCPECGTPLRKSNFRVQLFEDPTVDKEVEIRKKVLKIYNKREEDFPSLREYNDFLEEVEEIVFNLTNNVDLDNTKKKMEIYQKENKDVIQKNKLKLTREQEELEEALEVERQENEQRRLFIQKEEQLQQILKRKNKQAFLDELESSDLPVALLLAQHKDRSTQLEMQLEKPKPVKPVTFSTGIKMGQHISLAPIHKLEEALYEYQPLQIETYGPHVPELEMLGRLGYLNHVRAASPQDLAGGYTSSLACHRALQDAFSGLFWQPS

| Structure (SMILES) | Ki [1, 4] [µM] | kinact [1, 5] [s⁻¹] | kinact/KI [1, 6] [M⁻¹ s⁻¹] | melting point [°C] | IC50 [2] | IC50 [3] [nM] | Ki ([1]; CDK7 (KI(μM)), Table B) | CDK7 (kinact, s^−1) ([1]; Table B) [s⁻¹] | CDK7 (kinact/KI, M^−1*s^−1) ([1]; Table B) [M⁻¹ s⁻¹] | kinact ([1]; read-out: CDK7 (kinact, s^−1), Table B) [s⁻¹] | kinact/KI ([1]; read-out: CDK7 (kinact/KI, M^−1*s^−1), Table B) [M⁻¹ s⁻¹] | kinact/KI [1, 7] [M⁻¹ s⁻¹] |
| --- | --- | --- | --- | --- | --- | --- | --- | --- | --- | --- | --- | --- |
| C=CC(=O)N1CC(N2CCC(c3ccc4c(c3)Nc3ncnc(N5CCOCC5)c3C(CC)O4)CC2)C1 (stereo not shown) [compound 66] | 0.528 | 4.52e-05 | 85.5 | 118 | 933 nM | > 10000 | – | – | – | – | – | – |
| C=CC(=O)N1CC(N2CC[C@H](c3ccc4c(c3)Nc3ncnc(N5CCOCC5)c3CO4)[C@H](C)C2)C1 (single isomer, unassigned) [compound 37] | – | – | – | 217 | 912 nM and 676 nM | > 10000 | 0.164 µM and 0.152 µM | 7.29e-05 | 478.485 | 0.000137 | 832 | – |
| C=CC(=O)N1CC(N2CCC(c3cc(Cl)c4c(c3)Nc3ncnc(N5CCS(=O)(=O)CC5)c3CO4)CC2)C1 [compound 43] | – | – | – | 296 | 132 nM | > 10000 | – | – | – | – | – | 1490 |
| C=CC(=O)N1CC(N2CC(c3cc4c(c(C)n3)OCc3c(ncnc3N3CCS(=O)(=O)CC3)N4)C2)C1 [compound 64] | 0.427 | 4.81e-05 | 113 | > 300 | 7240 nM | > 10000 | – | – | – | – | – | – |
| C=CC(=O)N1CC(N2CCC(c3cc(Cl)c4c(c3)Nc3ncnc(N5CCOCC5)c3CO4)CC2)C1 [compound 42] | 0.0282 | 4.14e-05 | 1460 | > 300 | 372 nM | > 10000 | – | – | – | – | – | – |

More lines, now with the values ahead:

| Ki [1, 4] [µM] | kinact [1, 5] [s⁻¹] | kinact/KI [1, 6] [M⁻¹ s⁻¹] | melting point [°C] | IC50 [2] | IC50 [3] [nM] | Ki ([1]; CDK7 (KI(μM)), Table B) | CDK7 (kinact, s^−1) ([1]; Table B) [s⁻¹] | CDK7 (kinact/KI, M^−1*s^−1) ([1]; Table B) [M⁻¹ s⁻¹] | kinact ([1]; read-out: CDK7 (kinact, s^−1), Table B) [s⁻¹] | kinact/KI ([1]; read-out: CDK7 (kinact/KI, M^−1*s^−1), Table B) [M⁻¹ s⁻¹] | kinact/KI [1, 7] [M⁻¹ s⁻¹] | Structure (SMILES) |
| --- | --- | --- | --- | --- | --- | --- | --- | --- | --- | --- | --- | --- |
| – | – | – | 240 | 67.6 nM | > 10000 | – | – | – | – | – | 725 | C=CC(=O)N1CC(N2CCC(c3cc4c(c(C)n3)O[C@H](C)c3c(ncnc3N3CCS(=O)(=O)CC3)N4)CC2)C1 (single isomer, unassigned) [compound 85] |
| 0.96 | 5.21e-05 | 54.3 | 180 | 3890 nM | > 10000 | – | – | – | – | – | – | C=CC(=O)N1CC(N2CCC(c3cc(C)c4c(c3)Nc3ncnc(N5CC(CO)C5)c3CO4)CC2)C1 [compound 107] |
| 0.0485 | 4.48e-05 | 923 | 256 | 34.7 nM | 8130 | – | – | – | – | – | – | C=CC(=O)N1CCC(N2CCC(c3cc(C)c4c(c3)Nc3ncnc(N5CCS(=O)(=O)CC5)c3CO4)CC2)CC1 [compound 88] |
| 0.254 | 9.43e-05 | 372 | 267 | 166 nM | > 10000 | – | – | – | – | – | – | CC#CC(=O)N1CCN(C2CCN(c3cc(C)c4c(c3)Nc3ncnc(N5CCS(=O)(=O)CC5)c3CO4)CC2)CC1 [compound 137] |
| 0.0406 | 5.75e-05 | 1420 | 267 | 110 nM | > 10000 | – | – | – | – | – | – | C=CC(=O)N1CCN(C2CCN(c3cc(C)c4c(c3)Nc3ncnc(N5CCS(=O)(=O)CC5)c3CO4)CC2)CC1 [compound 91] |
